Reference: patent US20150157588A1, “Pharmaceutical Composition Comprising Amino-Phenyl-Acetic Acid Octadec-(Z)-9-enyl Ester and Use Thereof for Treating Tumors” (Yeda Research and Development Co., Ltd., priority 2012, published 2015)

System: unstimulated CD3 positive T cells
Assay: Microarray gene expression, unstimulated T cells
Type: cell-based, human
Conditions: for Fold change C16orf7: 205781_at; for Fold change TNFRSF17: 206641_at; for Fold change LILRB2 /// LILRB3: 210784_x_at; for Fold change CLEC11A: 211709_s_at; for Fold change WDR33: 218851_s_at
Experimental: CD3 positive T cells were extracted from a healthy donor according to a standard protocol, and seeded in T cell medium including RPMI, 10% fetal calf serum, sodium pyruvate, L-Glutamine, and Penicillin/Streptomycin. Following an overnight incubation with medium, the cells were treated by incubating for 2 hours at 37° C. with amino-phenyl-acetic acid octadec-(Z)-9-enyl ester at a concentration of 10 micrograms/ml in a final volume of 10 ml in T-cell medium with or without 0.05% ethanol. After incubation, half the cells from each treatment were centrifuged and 2 ml of Tri-reagent (Sigma) were added to the pellet. The other half of the cells from each treatment were transferred to anti-CD3 antibody coated 24 well plates for an overnight incubation at 37° C. Coating plates with an anti-CD3 antibody was carried out by incubating with 2 micrograms/ml of OKT3 anti-CD3 antibody overnight at 4° C., washing three times with PBS and blocking with filtered 1% Bovine Serum Albumin for 1 hour. After activation with anti-CD3 antibody, cells were centrifuged and 2 ml of Tri-reagent were added to the pellet.
RNA was extracted from unstimulated cells and from cells activated with anti-CD3 according to standard protocols and used for hybridization with a Human Genome U133A 2.0 (Affymetrix, Catalogue number 900468), according to the manufacturer's instructions. The results of the hybridization were read by a GeneChip scanner 3000 (Affymetrix) and analyzed by QuantArray (GSI lumonics).
The effects of amino-phenyl-acetic acid octadec-(Z)-9-enyl ester in ethanol solution or in an aqueous vehicle (hereinafter termed “in PBS”) on gene expression in unstimulated T cells and T cells activated by anti-CD3 antibody were compared by microarray analysis.

[1] = in ethanol solution vs untreated
[2] = in ethanol solution vs untreated, data not shown

SMILES: CCCCCCCC/C=C\CCCCCCCCOC(=O)C(N)c1ccccc1 (stereo not drawn) [amino-phenyl-acetic acid octadec-(Z)-9-enyl ester]
- Fold change SYMPK (32402_s_at, in ethanol solution vs in PBS): 2.03
- Fold change HEY1 (44783_s_at, in ethanol solution vs untreated): 2.11
- Fold change TPM2 (204083_s_at, in ethanol solution vs untreated): 2.39
- Fold change CDC25A (204695_at, in ethanol solution vs in PBS): 1.94
- Fold change EPHB6 (204718_at, in ethanol solution vs in PBS): 2.019
- Fold change RRAD (204802_at, in ethanol solution vs in PBS): 2.27
- Fold change C16orf7 (in ethanol solution vs in PBS): 2.54
- Fold change C16orf7 [1]: 2.15
- Fold change RASA3 (206221_at, in PBS vs untreated): −2.23
- Fold change FLJ23556 (206548_at, in ethanol solution vs in PBS): 1.94
- Fold change TNFRSF17 (in ethanol solution vs in PBS): 2.08
- Fold change TNFRSF17 [1]: 2.06
- Fold change SPAG9 (206748_s_at, in PBS vs untreated): −1.81
- Fold change CRTC1 (207159_x_at, in ethanol solution vs in PBS): 1.96
- Fold change TSPAN4 (209263_x_at, in ethanol solution vs in PBS): 2.24
- Fold change SF3A2 (209381_x_at, in ethanol solution vs untreated): 1.95
- Fold change TBC1D22A (210144_at, in ethanol solution vs untreated): 2.03
- Fold change LILRB2 /// LILRB3 (in PBS vs untreated): −1.84
- Fold change LILRB2 /// LILRB3 (in ethanol solution vs in PBS): 2.00
- Fold change CLEC11A (in ethanol solution vs in PBS): 2.10
- Fold change CLEC11A [1]: 2.19
- Fold change BOP1 /// LOC727967 (212563_at, in ethanol solution vs in PBS): 1.94
- Fold change ID2 /// ID2B (213931_at, in ethanol solution vs in PBS): 2.04
- Fold change MCL1 (214057_at, in ethanol solution vs untreated): 2.12
- Fold change S100A8 (214370_at, in ethanol solution vs untreated): 1.9
- Fold change MTMR1 (214975_s_at, in PBS vs untreated): −2.41
- Fold change probeset 215450_at (215450_at, in ethanol solution vs untreated): 1.98
- Fold change ARPC4 (217817_at, in ethanol solution vs untreated): 2.03
- Fold change CENPT (218148_at, in ethanol solution vs untreated): 1.94
- Fold change CLN6 (218161_s_at, in ethanol solution vs in PBS): 1.94
- Fold change IGF2BP2 (218847_at, in ethanol solution vs untreated): 2.02
- Fold change WDR33 (in ethanol solution vs in PBS): 2.79
- Fold change WDR33 [1]: 2.32
- Fold change IGHD (222285_at, in ethanol solution vs untreated): 1.98
- Fold change probeset 222376_at (222376_at, in ethanol solution vs untreated): 2.11
- up-regulated genes (in PBS vs untreated): no significantly up-regulated genes
- number of down-regulated genes (in ethanol solution compared with in PBS): 497 genes
- fold down-regulation of the down-regulated genes [2]: 2-18 fold
- number of down-regulated genes [2]: 573 genes
